Test results published in patent publication US10517889B2, “Modulators of SMAD7 expression” (Ionis Pharmaceuticals, Inc., priority 2017, dated 2019).
Strand notation (5' to 3'): a small letter for the sugar, then the base; units joined by * are phosphorothioate-linked, units joined directly phosphodiester-linked; [ ] holds rarer units or linkages, { } end groups; capitals alone tell only the bases. e = 2'-O-(2-methoxyethyl) (MOE); [5mC] = 5-methylcytosine; d = 2'-deoxy (DNA)

These substances were tested on human SMAD7 mRNA (assay: Antisense inhibition of human SMAD7 mRNA expression in Hep3B cells by 5-10-5 MOE gapmers, single concentration, electroporation, RT-PCR (Example 1, Study 1 and 2)). Conditions: Study 2, electroporation with 15,000 nM antisense oligonucleotide, 5-10-5 MOE gapmers targeting SEQ ID NO: 1 and 2.
Type: cell-based
Method in brief: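 Hep3B cells (20,000/well) electroporated with 5-10-5 MOE gapmer at 5,000 nM or 15,000 nM for approximately 24 h. SMAD7 mRNA quantified by real-time PCR with primer probe set RTS5062 and normalized to RIBOGREEN total RNA. Values are percent inhibition relative to untreated controls.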

Row | Substance | % inhibition of SMAD7 mRNA expression [%] | % Inhibition [%]
1 | 771551 (antisense eA*eT*eT*eT*e[5mC]*dT*dG*d[5mC]*dT*dT*d[5mC]*d[5mC]*d[5mC]*d[5mC]*dT*e[5mC]*eT*eT*e[5mC]*e[5mC]) [compound 771551] | 18 | –
2 | 771421 (eG*e[5mC]*e[5mC]*e[5mC]*eT*dG*d[5mC]*d[5mC]*d[5mC]*dG*dG*dG*d[5mC]*d[5mC]*dG*e[5mC]*e[5mC]*eG*e[5mC]*e[5mC]; antisense) [compound 771421] | – | 0
3 | 771615 (antisense eA*eG*e[5mC]*eT*eG*dG*dT*dT*dT*dT*d[5mC]*dT*dA*dA*dG*eT*e[5mC]*e[5mC]*eG*eG) [compound 771615] | 45 | –
4 | 771883 (antisense eA*eG*e[5mC]*eT*eG*dG*d[5mC]*dA*d[5mC]*dT*dG*dA*dA*dT*dG*e[5mC]*eT*eG*eA*eT) [compound 771883] | – | 26
5 | 771614 (antisense eG*eT*eT*eT*eT*d[5mC]*dT*dA*dA*dG*dT*d[5mC]*d[5mC]*dG*dG*eG*eA*eA*eA*eA) [compound 771614] | 25 | –
6 | 771535 (antisense eA*eA*e[5mC]*eA*eA*dA*dA*d[5mC]*dA*dG*dA*dA*d[5mC]*dA*d[5mC]*eA*eA*eA*e[5mC]*eG) [compound 771535] | 17 | –
7 | 771702 (antisense eA*eG*eG*eG*eT*dA*dT*dG*d[5mC]*dA*d[5mC]*dA*d[5mC]*dT*d[5mC]*eT*e[5mC]*e[5mC]*e[5mC]*eA) [compound 771702] | – | 24
8 | 771588 (antisense eA*eG*eG*e[5mC]*e[5mC]*d[5mC]*dG*dT*dG*dT*d[5mC]*d[5mC]*dT*dT*dG*eA*eT*eG*eA*eG) [compound 771588] | 13 | –
9 | 771412 (eT*e[5mC]*eG*e[5mC]*e[5mC]*d[5mC]*d[5mC]*dT*dT*d[5mC]*dT*d[5mC]*d[5mC]*d[5mC]*d[5mC]*eG*e[5mC]*eA*eG*e[5mC]; antisense) [compound 771412] | – | 38
10 | 771431 (eG*e[5mC]*e[5mC]*e[5mC]*e[5mC]*d[5mC]*dG*dG*d[5mC]*d[5mC]*dG*d[5mC]*dG*d[5mC]*d[5mC]*eG*eG*e[5mC]*eG*e[5mC]; antisense) [compound 771431] | – | 37
11 | 771708 (antisense eG*eG*eA*eT*eA*dA*dA*dA*dG*dG*dA*dA*dA*dG*dG*eA*eG*eT*eT*eT) [compound 771708] | – | 0
12 | 771501 (antisense eG*e[5mC]*eA*e[5mC]*eG*d[5mC]*dG*dG*d[5mC]*dT*dA*d[5mC]*d[5mC]*dG*dG*e[5mC]*eT*eG*eT*eT) [compound 771501] | 16 | –
13 | 771911 (antisense eA*eT*eG*eG*eT*d[5mC]*d[5mC]*dA*dG*d[5mC]*dA*dG*dA*dG*d[5mC]*eA*eG*eA*eA*eG) [compound 771911] | – | 20
14 | 771445 (eA*e[5mC]*eA*eG*e[5mC]*d[5mC]*dT*d[5mC]*dT*dT*dG*dA*d[5mC]*dT*dT*e[5mC]*e[5mC]*eG*eA*eG; antisense) [compound 771445] | – | 10
15 | 771806 (antisense eA*e[5mC]*eA*eA*eT*dG*dA*dA*dT*dA*dA*dT*dT*dG*dT*eT*e[5mC]*eA*e[5mC]*eG) [compound 771806] | – | 0
16 | 771727 (antisense eA*eA*e[5mC]*eA*eT*dG*dG*d[5mC]*d[5mC]*dT*dT*dT*d[5mC]*dT*dT*eT*eT*e[5mC]*eT*eA) [compound 771727] | – | 0
17 | 771526 (antisense eG*eT*eT*eT*eG*d[5mC]*dA*dT*dG*dA*dA*dA*dA*dG*d[5mC]*eA*eA*eG*e[5mC]*eA) [compound 771526] | 26 | –
18 | 771375 (antisense e[5mC]*eT*eA*eA*eA*d[5mC]*dA*dG*d[5mC]*dA*dT*dG*dA*dA*dA*eG*eA*e[5mC]*eA*eA) [compound 771375] | – | 4
19 | 771362 (antisense eG*eT*eA*eA*eG*dA*d[5mC]*dA*dG*dA*d[5mC]*d[5mC]*dA*d[5mC]*dA*eG*e[5mC]*eA*e[5mC]*e[5mC]) [compound 771362] | – | 15

Same assay, conditions: electroporation with 15,000 nM antisense oligonucleotide (Study 2), 5-10-5 MOE gapmers targeting SEQ ID NO: 1 and 2

Row | Substance | % Inhibition of SMAD7 mRNA [%] | % inhibition of SMAD7 mRNA expression [%]
20 | 771872 (antisense eT*e[5mC]*e[5mC]*e[5mC]*e[5mC]*d[5mC]*dA*d[5mC]*d[5mC]*dG*d[5mC]*dG*d[5mC]*dA*dG*eG*eG*eA*e[5mC]*eA) [compound 771872] | 11 | –
21 | 771673 (antisense eA*eG*eG*eT*eT*dT*dT*dT*dT*dT*dT*d[5mC]*dA*dG*dG*eA*eG*eT*e[5mC]*e[5mC]) [compound 771673] | – | 44
22 | 771451 (antisense eA*eG*eA*e[5mC]*eT*d[5mC]*dT*dA*dG*dT*dT*d[5mC]*dG*d[5mC]*dA*eG*eA*eG*eT*e[5mC]) [compound 771451] | – | 15
23 | 771633 (antisense eG*eA*e[5mC]*e[5mC]*eA*dA*dA*dT*d[5mC]*d[5mC]*dT*dT*d[5mC]*dT*dT*eG*eG*eA*eG*eG) [compound 771633] | – | 40
24 | 771888 (antisense eT*e[5mC]*eG*e[5mC]*e[5mC]*dA*dT*dG*dG*dA*dG*dA*dA*dT*dG*eT*eA*eA*eT*eT) [compound 771888] | 21 | –
25 | 771824 (antisense eT*eT*e[5mC]*eT*eA*d[5mC]*dT*dA*dG*dA*dA*dA*dA*dA*dA*eA*eT*eT*eA*eG) [compound 771824] | 3 | –
26 | 771768 (antisense eG*eT*eA*eT*eG*d[5mC]*dT*dT*dG*dG*dG*dA*dT*d[5mC]*dT*eG*eT*e[5mC]*eT*eT) [compound 771768] | 24 | –

Same assay, conditions: electroporation, 5,000 nM, approximately 24 hours, relative to untreated control cells, gapmers targeting SEQ ID NO: 1 and 2

Row | Substance | % inhibition of SMAD7 mRNA expression [%]
27 | 771883 (antisense eA*eG*e[5mC]*eT*eG*dG*d[5mC]*dA*d[5mC]*dT*dG*dA*dA*dT*dG*e[5mC]*eT*eG*eA*eT) [compound 771883] | 0
28 | 771412 (eT*e[5mC]*eG*e[5mC]*e[5mC]*d[5mC]*d[5mC]*dT*dT*d[5mC]*dT*d[5mC]*d[5mC]*d[5mC]*d[5mC]*eG*e[5mC]*eA*eG*e[5mC]; antisense) [compound 771412] | 52

Same assay, conditions: electroporation, 15,000 nM antisense oligonucleotide (Study 2), 5-10-5 MOE gapmers targeting SEQ ID NO: 1 and 2

Row | Substance | % inhibition of SMAD7 mRNA expression [%]
29 | 771872 (antisense eT*e[5mC]*e[5mC]*e[5mC]*e[5mC]*d[5mC]*dA*d[5mC]*d[5mC]*dG*d[5mC]*dG*d[5mC]*dA*dG*eG*eG*eA*e[5mC]*eA) [compound 771872] | 0
30 | 771913 (antisense eA*eA*eA*eA*eA*dA*dG*d[5mC]*d[5mC]*dA*dG*dT*dA*dA*dA*eG*eA*e[5mC]*eA*eT) [compound 771913] | 11
31 | 771930 (antisense e[5mC]*e[5mC]*eA*eG*e[5mC]*d[5mC]*d[5mC]*dA*dG*dA*dA*dA*dA*dA*d[5mC]*eT*eG*e[5mC]*eA*eA) [compound 771930] | 26
32 | 771372 (antisense eA*e[5mC]*eA*eA*eA*d[5mC]*d[5mC]*dA*d[5mC]*dA*d[5mC]*dA*dT*dT*d[5mC]*e[5mC]*eA*eA*eA*eA) [compound 771372] | 37
33 | 771569 (antisense eG*eG*eA*e[5mC]*eT*dG*d[5mC]*dA*dA*dA*d[5mC]*d[5mC]*dT*d[5mC]*dT*e[5mC]*eT*eG*e[5mC]*eT) [compound 771569] | 30
34 | 771842 (antisense eT*eT*eG*eT*eG*dT*dT*dA*dT*dG*dA*dA*dA*dA*d[5mC]*eA*eA*eA*eA*e[5mC]) [compound 771842] | 6
35 | 771396 (antisense e[5mC]*eT*eG*e[5mC]*eG*d[5mC]*dT*d[5mC]*d[5mC]*dG*dG*d[5mC]*dT*dG*d[5mC]*e[5mC]*e[5mC]*e[5mC]*eA*e[5mC]) [compound 771396] | 48
36 | 771906 (antisense eA*e[5mC]*e[5mC]*e[5mC]*eT*dT*dG*d[5mC]*dT*dG*dG*dT*d[5mC]*dT*d[5mC]*eT*eT*eG*eT*eT) [compound 771906] | 0
37 | 771586 (antisense e[5mC]*e[5mC]*eT*eT*eG*dA*dT*dG*dA*dG*dG*dG*dA*dG*dA*eG*eG*eA*eG*eG) [compound 771586] | 48
38 | 771921 (antisense eT*e[5mC]*e[5mC]*eT*e[5mC]*d[5mC]*d[5mC]*dT*dT*dT*dA*dA*dA*dG*dG*eG*eA*eA*eG*eG) [compound 771921] | 14
39 | 771529 (antisense e[5mC]*eG*eA*e[5mC]*e[5mC]*dA*dA*dA*dG*dA*dG*dT*dT*dT*dG*e[5mC]*eA*eT*eG*eA) [compound 771529] | 0
40 | 771888 (antisense eT*e[5mC]*eG*e[5mC]*e[5mC]*dA*dT*dG*dG*dA*dG*dA*dA*dT*dG*eT*eA*eA*eT*eT) [compound 771888] | 0
41 | 771745 (antisense eG*eT*eG*eA*eA*dG*dA*dA*dG*d[5mC]*dA*dA*dA*dG*dT*eA*eT*eA*e[5mC]*e[5mC]) [compound 771745] | 24
42 | 771824 (antisense eT*eT*e[5mC]*eT*eA*d[5mC]*dT*dA*dG*dA*dA*dA*dA*dA*dA*eA*eT*eT*eA*eG) [compound 771824] | 0
43 | 771768 (antisense eG*eT*eA*eT*eG*d[5mC]*dT*dT*dG*dG*dG*dA*dT*d[5mC]*dT*eG*eT*e[5mC]*eT*eT) [compound 771768] | 11
44 | 771514 (antisense eT*eT*eA*eG*e[5mC]*dA*dG*d[5mC]*dA*dA*dA*dG*dT*dA*dG*eT*eT*eT*eG*eA) [compound 771514] | 19

Same assay, conditions: electroporation, 15,000 nM, approximately 24 hours, relative to untreated control cells, gapmers targeting SEQ ID NO: 1 and 2

Row | Substance | % inhibition of SMAD7 mRNA expression [%]
45 | 771813 (antisense eT*e[5mC]*eT*eT*eG*dT*d[5mC]*dT*dG*dG*d[5mC]*d[5mC]*dG*dG*d[5mC]*eA*eG*eA*eG*e[5mC]) [compound 771813] | 38
46 | 771597 (antisense eG*eA*eA*eT*eA*dA*dG*dA*d[5mC]*dA*dA*dG*dG*dA*dT*eG*eA*eA*eA*eA) [compound 771597] | 0
47 | 771861 (antisense eA*eG*eA*eA*eA*dA*d[5mC]*dA*dG*d[5mC]*d[5mC]*d[5mC]*d[5mC]*d[5mC]*d[5mC]*e[5mC]*eA*eG*e[5mC]*eA) [compound 771861] | 13
48 | 771478 (antisense e[5mC]*eA*e[5mC]*e[5mC]*eT*dT*dG*dT*dG*dT*dA*d[5mC]*d[5mC]*dA*dA*e[5mC]*eA*eG*e[5mC]*eG) [compound 771478] | 53
49 | 771941 (antisense eT*e[5mC]*eA*eA*eT*dG*dA*dT*dG*dA*dT*dG*dG*dG*dT*eT*eG*e[5mC]*eA*e[5mC]) [compound 771941] | 40
50 | 771933 (antisense eA*eT*e[5mC]*eG*eA*dG*dG*dT*dG*d[5mC]*d[5mC]*d[5mC]*d[5mC]*d[5mC]*dA*eT*eG*e[5mC]*e[5mC]*eA) [compound 771933] | 31
